The source of these data is paper PMC10158552 (Biomedicine & Pharmacotherapy, 2023).

The assay relates to SARS-CoV-2 Delta. It counts as cell-based. The following applies: 346 µM compounds, 480 µg/ml antibodies.

Regarding “Casirivimab: monoclonal Ab administered intravenously in patients, used as positive control (Roche)”, the “viral replication of SARS-CoV-2, basal treatment” value is reported as “show an antiviral effect”. As to “Imdevimab: monoclonal Ab administered intravenously in patients, used as positive control (Roche)”, the “viral replication of SARS-CoV-2, basal treatment” value is recorded as “show an antiviral effect”.
